Test results: patent publication US20160279164A1, “High-Molecular Weight Conjugate Of Resorcinol Derivatives” (Nippon Kayaku Kabushiki Kaisha, priority 2006, published 2016)

Test system: mouse colon cancer Colon26
Assay: Anti-tumor effect on mice transplanted with the mouse colon cancer Colon26
Type: in vivo
Conditions: 5 consecutive days, female CDF1 mice
From the text: Tumor of mouse colon cancer, Colon26, maintained by serial subcutaneous subculture in BALB/cA mice, was minced into about 2-mm square blocks, and the blocks were transplanted subcutaneously on the dorsal part of a female CDF1 mice with a trocar. On the 7th day after tumor transplantation, the high-molecular weight conjugate of a resorcinol derivative (compound 1) of the present invention, and as a control, the included resorcinol derivative, 5-(2,4-dihydroxy-5-isopropyl-phenyl)-4-(4-methoxy-phenyl)-2,4-dihydro-[1,2,4]triazol-3-one), were administered intravenously to the mouse tail vein. Compound 1 of the present invention was dissolved in a 5% glucose injectable solution, and was administered once. The resorcinol derivative (the included compound) used as the control, was dissolved in DMSO, and TWEEN80 was added thereto, and then the mixture was diluted with a 5% glucose injectable solution. The dilution was administered once a day for 5 consecutive days. After the administration, the major diameter (L mm) and the minor diameter (W mm) of the tumor were measured regularly, and the tumor volume was calculated by the formula: (L×W^2)/2. Based on the tumor volume of the administration initiation day, the average relative tumor volume for each measurement day was determined (Table 1).

In the case of `COc1ccc(-n2c(-c3cc(C(C)C)c(O)cc3O)n[nH]c2=O)cc1` [Included compound, 5-(2,4-dihydroxy-5-isopropyl-phenyl)-4-(4-methoxy-phenyl)-2,4-dihydro-[1,2,4]triazol-3-one], the “average relative tumor volume” value (day 0 after administration, 50 mg/kg/day i.v.) was 1.0, the “average relative tumor volume” value (day 0 after administration, 100 mg/kg/day i.v.) was 1.0 and the “average relative tumor volume” value (day 2 after administration, 50 mg/kg/day i.v.) was 1.6. The “average relative tumor volume” value (day 2 after administration, 100 mg/kg/day i.v.) was 1.1, the “average relative tumor volume” value (day 3 after administration, 50 mg/kg/day i.v.) was 1.6 and the “average relative tumor volume” value (day 3 after administration, 100 mg/kg/day i.v.) was 0.7. The “average relative tumor volume” value (day 5 after administration, 50 mg/kg/day i.v.) was 2.5, the “average relative tumor volume” value (day 5 after administration, 100 mg/kg/day i.v.) was 1.0 and the “average relative tumor volume” value (day 7 after administration, 50 mg/kg/day i.v.) was 2.5. For the same compound, the “average relative tumor volume” value (day 7 after administration, 100 mg/kg/day i.v.) was 3.3, the “average relative tumor volume” value (day 9 after administration, 50 mg/kg/day i.v.) was 6.7 and the “average relative tumor volume” value (day 9 after administration, 100 mg/kg/day i.v.) was 5.0. For the same compound, the “average relative tumor volume” value (day 12 after administration, 50 mg/kg/day i.v.) was 10, the “average relative tumor volume” value (day 12 after administration, 100 mg/kg/day i.v.) was 11 and the “average relative tumor volume” value (day 14 after administration, 50 mg/kg/day i.v.) was 13. For the same compound, the “average relative tumor volume” value (day 14 after administration, 100 mg/kg/day i.v.) was 12.
